Patent publication EP1153612A1, “ANTICANCER AGENT POTENTIATORS” (Tsuruo, Takashi, priority 1999, dated 2000)

System: human colon adenocarcinoma cell HT-29
Assay: Sensitivity of cells to anticancer drug by colony formation method (M phase-synchronized cells, with or without proteasome inhibiting agent)
Assay type: cell-based
Conditions: for change of cell-killing effect of camptothecin: lactacystin 10 µM 13 hours, camptothecin 4 hours, FIG. 14
Experimental: In the glucose starvation environment found in the solid cancer, the effect of combined use of the proteasome inhibitor in a human colon adenocarcinoma cell HT-29 with the anticancer drug targeting topoisomerase II was tested.
Concerning culture media, for a culture condition in a normal state, RPMI 1640 medium (Nissui Pharmaceutical Co.-made) to which a 5% FBS (fetal bovine serum) was added and for the culture condition in the glucose starvation state symbolically found in the solid cancer, RPMI 1640 medium (Lifetech Oriental-made), lacking glucose, in which the 5% FBS was added were used, respectively. Culture was carried out using a CO2 incubator (Tabai Espec-made) under conditions of 5% CO2/95% air and humidity 100%.
In order to test sensitivity to the anticancer drug, the cell cycle synchronization culture methodwas employed. Nocodazol (Sigma made) was used to synchronize the cell cycle, cells in a logarithmic proliferation phase were treated with 40 ng/ml Nocodazol for 9 hours, and cells accumulated in cell division phase (Mpahse) were collected by gentle pipetting. M phase-synchronized cells collected through these steps were washed with PBS (phosphate buffered saline) followed by inoculation of 1×10^5 cells per well of 12 well-culture plate.
M phase-synchronized cells were cultured under the normal condition and the glucose starvation condition to conduct treatments with the proteasome inhibiting agent and the anticancer drug as follows. For cells under the glucose starvation condition, the culture medium, to which the proteasome inhibiting agent and the protease inhibiting agent not inhibiting proteasome were added as the control group, and the culture medium, to which no inhibiting agent has been added, was used. For cells under the normal condition, the culture medium, to which each inhibiting agent was not added, was used. After inoculation of cells, culture was carried out for 13 hours in each culture medium. […]
Sensitivity of cells to the anticancer drug was measured using the colony formation method. As described above, cells treated with the proteasome inhibiting agent and the anticancer drug were washed with PBS followed by soaking in trypsin (Lifetech Oriental made) solution and removed from a culture dish to suspend in an ordinary culture medium. These cells were inoculated again in 500 to 5000 cells for a 10 cm culture dish and cultured for 10 to 12 days to form a colony. The colony formed was fixed by 10% formaldehyde solution and stainedwith 0.01% crystal violet (Wako Pure Chemicals made) solution. Number of colony was counted and a Cell survival rate was calculated assuming that the number of colonies untreated with the anticancer drug is 1.
For reference, the proteasome inhibiting agent and the protease inhibiting agent not inhibiting proteasome used as described above were as follows. • (1) Proteasome inhibiting agent • . […] MG115 (carbobenzoxy-L-Leucyl-L-Leucyl-L-Norvalinal): final concentration 2.5 µM (Peptide Institute Inc. made) • . MG132 (carbobenzoxy-L-Leucyl-L-Leucyl-Leucinal) : final concentration 2.5 µM (Peptide Institute Inc. made) • . Lactacystin, final concentration 10 µM (Kindly supplied from The Kitasato Institute made) • (2) Protease inhibiting agent not inhibiting proteasome • . E64, final concentration 25 µM (Peptide Institute Inc. made) • . ZLLal (carbobenzoxy-L-Leucyl-L-Leucinal): final concentration 25 µM (Peptide Institute Inc. made)
The cell culture condition for both M phase-synchronized culture method and culture under the glucose starvation condition was as described in Example 1. M phase-synchronized cells were cultured in the culture medium, to which lactacystin of the final concentration 10 µM was added, or the culture medium, to which this was not added, as the proteasome inhibiting agent under the ordinary condition and the glucose starvation condition, respectively, for 13 hours. […]

CC(=O)N[C@@H](CSC(=O)[C@]1([C@@H](O)C(C)C)NC(=O)[C@H](C)[C@@H]1O)C(=O)O [lactacystin]
change of cell-killing effect of bleomycin (glucose starvation condition, lactacystin 7.5 µM 13 hours, bleomycin 4 hours): enhances the cell-killing effect | change of cell-killing effect of mitomycin C (glucose starvation condition, lactacystin 7.5 µM 13 hours, mitomycin C 4 hours): enhances the cell-killing effect of mitomycin C | change of cell-killing effect of camptothecin (glucose starvation condition): enhances the cell-killing effect of camptothecin | effect on etoposide sensitivity (glucose starvation condition, lactacystin 10 µM, FIG. 3): enhances sensitivity to etoposide | change of cell-killing effect of cisplatin (ordinary culture condition and glucose starvation condition, lactacystin 7.5 µM 13 hours, cisplatin 4 hours, FIG. 18): enhances the cell-killing effect of cisplatin | change of cell-killing effect of camptothecin (ordinary culture condition): the cell-killing effect thereof is enhanced
